{
  "source": "patent US20250162986A1",
  "about": "“Compounds and compositions for neurodegenerative diseases” (Universidade Nova de Lisboa, priority 2022, published 2025)",
  "format_in_all_cases": "cell-based",
  "key": {"[1]": {"test_system": "N9 mouse microglia cell line", "experiment": "LPS-induced TNF-α release in microglia cells (ELISA)", "conditions": "for activity at 5 µM: Mus musculus, Microglia, read-out: TNFα release (Fold-change relative to LPS); for release of TNF-α (FIG. 1): 100 nM, 2, 4 and 6 hours pre-incubation; for attenuation of TNFα release at lower concentrations: at and below 100 nanomolar (data not shown)", "experimental": "(§1) The “N9” murine microglia cell line was cultured in EMEM (Eagle Minimum Essential Media) supplemented with 10% (v/v) FBS, […] L-glutamine, 1% (v/v) NEAA and maintained at 37° C., 5% (v/v) CO2. Experiments were performed on 24-well plates. Compounds were incubated in cells for the indicated amount of time (2, 4 or 6 hours) before the addition of the indicated inflammatory stimuli (Lipopolysaccharide (LPS) or TNFα:IFNγ).\nThe experiment was conducted in vitro using N9 mouse microglia cell line. Phenolic metabolites or derived-thereof were pre-incubated for 6 hours at 5 micromolar with microglia cells in cell media. Afterwards cells were washed and incubated with lipopolysaccharides for 24 hours. At the end of this period cell media was collected and the presence of TNF-α analyzed using ELISA, thus showing the results as shown in Table 1.\nIn an embodiment compounds resorcinol-sulfate and phloroglucinol-sulfate were pre-incubated at 100 nanomolar for 2, 4, 6 hours with the cells in the cell media. Afterwards cells were washed and incubated with lipopolysaccharides for 24 hours. At the end of this period cell media was collected and the presence of TNF-α analyzed using ELISA, thus showing the results as substantially depicted in FIG. 1."}, "[2]": {"test_system": "N9 mouse microglia cell line", "experiment": "LPS-induced production of multiple cytokines in microglia cells (flow cytometry, LEGENDplex)", "conditions": "100 nM, 6 hours pre-incubation, then 24 hours lipopolysaccharides", "experimental": "as §1\n(§2) The experiment was conducted in vitro using N9 mouse microglia cell line. Phenolic metabolites were pre-incubated for 6 hours in the cell media at the indicated concentration. Afterwards cells were washed and incubated with lipopolysaccharides for 24 hours. At the end of this period cell media was collected and the presence of various cytokines analyzed using flow cytometry (LEGENDplex™ Mouse Macrophage/Microglia Panel), thus showing the results as substantially depicted in FIG. 2."}, "[3]": {"test_system": "LUHMES cells (human dopaminergic cell line)", "experiment": "Cell viability and ATP levels after MPP+ oxidative insult", "conditions": "24 hours pre-treatment at 5 μM, then 24 hours MPP+; for ATP levels (FIG. 5B): luciferase; for cell viability (metabolic capacity) (FIG. 5A): resazurin", "experimental": "The LUHMES cells (human dopaminergic cell line) were cultured in advanced DMEM-F12 ([…]) at 37° C. with 5% (v/v) CO2. Experiments were performed in 24 well plates. Compounds were incubated for 24 hours before addition of Parkinson inducing toxin MPP+ was added to cells.\nThe experiment was conducted in vitro using “LUHMES”, human dopaminergic cell line at 37° C. with 5% CO2. Phenolic metabolites were incubated for 24 hours at 5 μM. After this period cells were washed and incubated (or not) with MPP+ ([…]) for 24 hours in order to produce the oxidative insult, that mimics the dopaminergic lesions found in several neurodegenerative diseases, namely in Parkinson's Disease brain. Afterwards cell medium was replaced with new medium including the cell metabolic dyes: resazurin for 2 hours or luciferase for 30 min. Colour development was measured by fluorescence and luminescence respectively, in a Synergy (Biotek) plate reader, thus showing the results as substantially depicted in FIG. 5."}, "[4]": {"test_system": "N9 mouse microglia cell line", "experiment": "TNF-α and IFNγ-induced production of multiple cytokines in microglia cells (flow cytometry, LEGENDplex)", "conditions": "100 nM, 6 hours pre-incubation, then 24 hours TNF-α 10 nM plus IFNγ 1 nM", "experimental": "as §1\nas §2, with “in the regular cell media” for “in the cell media”, “incubated with TNF-α 10 nM plus IFNγ 1 nM for 24” for “incubated with lipopolysaccharides for 24”, “in FIG. 3.” for “in FIG. 2.”"}, "[5]": {"conditions": "5 micromolar, 6 hours pre-incubation, then 24 hours lipopolysaccharides, ELISA"}, "[6]": {"conditions": "then 24 hours lipopolysaccharides"}},
  "note": "Structures can show the parent of a compound that is named as a salt.",
  "data": [
    {"molecule": "O=S(=O)(O)Oc1ccc(CO)c(O)c1O", "note": "[2,3-dihydroxy-4-(hydroxymethyl)phenyl hydrogen sulfate]", "values": [
      {"measurement": "activity at 5 µM", "setting": "[1]; [5]", "value": "48 ± 7", "unit": "%"}
    ]},
    {"molecule": "O=S(=O)(O)Oc1cccc(O)c1", "note": "[Resorcinol-sulfate, 3-hydroxyphenyl hydrogen sulfate]", "values": [
      {"measurement": "release of TNF-α (FIG. 1)", "setting": "[1]; [6]", "value": "reduction in release of TNF-α"},
      {"measurement": "activity at 5 µM", "setting": "[1]; [5]", "value": "58 ± 13", "unit": "%"},
      {"measurement": "attenuation of TNFα release at lower concentrations", "setting": "[1]", "value": "capability to attenuate TNFα release at lower concentrations"},
      {"measurement": "multiple cytokines (G-CSF, TNF-α, IL-6, IL-10, IL-1β, CCL17, IL-12p40, TGFβ1, CCL22, IL18, CXCL1) (FIG. 2)", "setting": "[2]", "value": "reduction in multiple cytokines"},
      {"measurement": "ATP levels (FIG. 5B)", "setting": "[3]", "value": "protective effects"},
      {"measurement": "cell viability (metabolic capacity) (FIG. 5A)", "setting": "[3]", "value": "protective effects"},
      {"measurement": "multiple cytokines (TNF-α, CCL22, IL-10, CCL17, IL-1β, CXCL1, G-CSF, IL-6, IL-18, TGFβ1, IL23, IL-12p40, IL-12p70) (FIG. 3)", "setting": "[4]", "value": "reduction in multiple cytokines"}
    ]},
    {"molecule": "COc1cc(C(=O)O)ccc1OS(=O)(=O)O", "note": "[3-methoxy-4-(sulfooxy)benzoic acid]", "values": [
      {"measurement": "activity at 5 µM", "setting": "[1]; [5]", "value": "56 ± 16", "unit": "%"}
    ]},
    {"molecule": "O=S(=O)(O)Oc1cc(O)cc(O)c1", "note": "[Phloroglucinol-sulfate, 3,5-dihydroxyphenyl hydrogen sulfate]", "values": [
      {"measurement": "release of TNF-α (FIG. 1)", "setting": "[1]; [6]", "value": "reduction in release of TNF-α"},
      {"measurement": "activity at 5 µM", "setting": "[1]; [5]", "value": "57 ± 6", "unit": "%"},
      {"measurement": "attenuation of TNFα release at lower concentrations", "setting": "[1]", "value": "capability to attenuate TNFα release at lower concentrations"},
      {"measurement": "multiple cytokines (G-CSF, TNF-α, IL-6, IL-10, IL-1β, CCL17, IL-12p40, TGFβ1, CCL22, IL18, CXCL1) (FIG. 2)", "setting": "[2]", "value": "reduction in multiple cytokines"},
      {"measurement": "ATP levels (FIG. 5B)", "setting": "[3]", "value": "protective effects"},
      {"measurement": "cell viability (metabolic capacity) (FIG. 5A)", "setting": "[3]", "value": "protective effects"},
      {"measurement": "multiple cytokines (TNF-α, CCL22, IL-10, CCL17, IL-1β, CXCL1, G-CSF, IL-6, IL-18, TGFβ1, IL23, IL-12p40, IL-12p70) (FIG. 3)", "setting": "[4]", "value": "reduction in multiple cytokines"}
    ]},
    {"molecule": "Cc1ccc(OS(=O)(=O)O)c(O)c1O", "note": "[2,3-dihydroxy-4-methylphenyl hydrogen sulfate]", "values": [
      {"measurement": "activity at 5 µM", "setting": "[1]; [5]", "value": "45 ± 4", "unit": "%"}
    ]},
    {"molecule": "COc1cccc(OS(=O)(=O)O)c1O", "note": "[2-hydroxy-3-methoxyphenyl hydrogen sulfate]", "values": [
      {"measurement": "activity at 5 µM", "setting": "[1]; [5]", "value": "65 ± 11", "unit": "%"}
    ]},
    {"molecule": "COc1c(O)cccc1OS(=O)(=O)O", "note": "[3-hydroxy-2-methoxyphenyl hydrogen sulfate]", "values": [
      {"measurement": "activity at 5 µM", "setting": "[1]; [5]", "value": "65 ± 8", "unit": "%"}
    ]},
    {"molecule": "COc1cc(O)cc(OS(=O)(=O)O)c1", "note": "[3-hydroxy-5-methoxyphenyl hydrogen sulfate]", "values": [
      {"measurement": "activity at 5 µM", "setting": "[1]; [5]", "value": "57 ± 6", "unit": "%"}
    ]},
    {"molecule": "COc1c(O)cc(C(=O)O)cc1OS(=O)(=O)O", "note": "[4-O-methyl gallic acid-3-sulfate]", "values": [
      {"measurement": "TNFα release (Fold-change relative to LPS)", "setting": "[1]; [5]", "value": "0.50 ± 0.07 Fold-change relative to LPS"}
    ]}
  ]
}
